Data: ChEMBL document CHEMBL2151021, “Novel amide- and sulfonamide-based aromatic ethanolamines: effects of various substituents on the inhibition of acid and neutral ceramidases” (Bioorg Med Chem, 2012)
Activity calls are given as the source filed them. No cut-off for these calls is given here.

How the values were obtained:
[1] = molecular target: Neutral ceramidase (Homo sapiens) (UniProt Q9NR71); test: Inhibition of recombinant human nCDase expressed in Sf9 cells using fluorescently-labeled acyl-NBD-C12-ceramide as substrate at 80 uM after 2 hrs by fluorescence assay
[2] = molecular target: T1, Acid ceramidase (Homo sapiens) (UniProt Q13510); test: Inhibition of recombinant human aCDase expressed in Sf9 cells using fluorescently-labeled acyl-NBD-C12-ceramide as substrate at 80 uM after 8 hrs by fluorescence assay
T1 sequence (whole entry): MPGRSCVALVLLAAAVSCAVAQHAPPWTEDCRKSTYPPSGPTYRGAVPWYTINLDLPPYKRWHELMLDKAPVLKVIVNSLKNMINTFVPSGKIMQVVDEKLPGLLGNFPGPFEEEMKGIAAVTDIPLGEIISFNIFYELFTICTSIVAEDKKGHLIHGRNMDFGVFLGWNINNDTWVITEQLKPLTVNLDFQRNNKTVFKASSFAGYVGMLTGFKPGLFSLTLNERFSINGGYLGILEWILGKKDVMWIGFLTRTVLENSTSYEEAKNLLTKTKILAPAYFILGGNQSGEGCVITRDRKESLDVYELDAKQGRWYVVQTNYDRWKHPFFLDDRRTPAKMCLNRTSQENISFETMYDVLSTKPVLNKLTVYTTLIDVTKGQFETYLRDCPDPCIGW

[3] = molecular target: T2, Acid ceramidase (Homo sapiens, UniProt Q13510); test: Inhibition of aCDase expressed in human HL60 cell extract; assay type: cell-free, HL-60
T2 sequence (Q13510 whole entry): T1 sequence (whole entry)

[4] = molecular target: Neutral ceramidase (Homo sapiens) (UniProt Q9NR71); test: Activity of recombinant human nCDase expressed in Sf9 cells at 300 uM after 2 hrs by fluorescence assay
[5] = molecular target: T2, Acid ceramidase; test: Inhibition of aCDase

Chain of Neutral ceramidase (Homo sapiens) (Q9NR71 whole entry): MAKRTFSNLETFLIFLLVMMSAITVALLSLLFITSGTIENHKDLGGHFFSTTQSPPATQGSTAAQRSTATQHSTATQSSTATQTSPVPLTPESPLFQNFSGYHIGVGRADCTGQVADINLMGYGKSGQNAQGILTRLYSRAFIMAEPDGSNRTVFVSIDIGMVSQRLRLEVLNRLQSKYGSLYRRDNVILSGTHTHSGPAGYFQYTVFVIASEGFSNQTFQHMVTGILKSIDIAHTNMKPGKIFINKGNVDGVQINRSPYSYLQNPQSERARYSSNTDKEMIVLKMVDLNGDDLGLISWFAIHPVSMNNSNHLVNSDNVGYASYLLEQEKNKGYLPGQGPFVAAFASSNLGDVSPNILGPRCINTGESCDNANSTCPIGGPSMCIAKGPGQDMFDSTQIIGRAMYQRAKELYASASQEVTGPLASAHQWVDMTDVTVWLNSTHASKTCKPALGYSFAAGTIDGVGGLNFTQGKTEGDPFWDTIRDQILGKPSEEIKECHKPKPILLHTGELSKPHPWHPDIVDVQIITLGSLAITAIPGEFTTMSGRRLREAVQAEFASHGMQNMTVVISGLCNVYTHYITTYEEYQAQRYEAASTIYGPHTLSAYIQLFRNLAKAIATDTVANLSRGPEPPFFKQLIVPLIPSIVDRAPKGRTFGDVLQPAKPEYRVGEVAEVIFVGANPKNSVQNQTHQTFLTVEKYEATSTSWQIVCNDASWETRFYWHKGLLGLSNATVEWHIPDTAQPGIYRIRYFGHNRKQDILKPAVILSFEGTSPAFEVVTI

Row | SMILES | inhibition [1] | inhibition [2] | IC50 [3] | Activity [4] | IC50 [5]
1 | CCCCCCCCCCCCCC(=O)NCC(O)c1ccc(C)cc1 (single isomer, unassigned; (-)) | Active | Active | – | – | –
2 | CCCCCCCCCCCCS(=O)(=O)N[C@H](C)[C@@H](O)c1ccccc1 | Active | Active | – | – | –
3 | CCCCCCCCCCCCCC(=O)NCC(O)c1cccc(OC)c1 (racemic) | Active | inactive | – | – | –
4 | CCCCCCCCCCCCCC(=O)N[C@H](C)[C@@H](O)c1ccccc1 | – | Active | 1 µM | – | –
5 | CCCCCCCCCCCCCC(=O)NCC(O)c1ccc(C)cc1 (stereo in doubt) | Active | Active | – | – | –
6 | CCCCCCCCCCCCCC(=O)NCC(=O)c1ccc(C)cc1 | Active | Active | – | – | –
7 | CCCCCCCCCCCCCC(=O)NCC(O)c1ccc(OC)cc1 (racemic) | Active | inactive | – | – | –
8 | CCCCCCCCCCCCS(=O)(=O)N[C@H](CO)[C@H](O)c1ccc([N+](=O)[O-])cc1 | – | Active | – | – | –
9 | CCCCCCCCCCCCCC(=O)NCC(O)c1ccc(CCCC)cc1 (racemic) | – | inactive | – | – | –
10 | CCCCCCCCCCCCCC(=O)NCC(O)c1ccc(O)cc1 (racemic) | – | Active | – | – | –
11 | CCCCCCCCCCCCCC(=O)NCC(O)c1cccc(C)c1 (racemic) | – | Active | – | – | –
12 | CCCCCCCCCCCCCC(=O)NCC(O)c1ccc(CC)cc1 (racemic) | – | Active | – | – | –
13 | CCCCCCCCCCCCCC(=O)NCC(O)c1ccccc1 (racemic) | – | Active | – | – | –
14 | CCCCCCCCCCCCCC(=O)NCC(O)c1ccncc1 (racemic) | Active | Active | – | – | –
15 | CCCCCCCCCCCCS(=O)(=O)NCC(O)c1cccnc1 (racemic) | Active | Active | – | – | –
16 | CCCCCCCCCCCCS(=O)(=O)NCC(O)c1ccc(C)cc1 (racemic) | Active | Active | – | inactive | –
17 | CCCCCCCCCCCCCC(=O)NCC(O)c1ccc(CCC)cc1 (racemic) | inactive | Active | – | – | –
18 | CCCCCCCCCCCCCC(=O)NCC(O)c1cccnc1 (racemic) | Active | Active | – | – | –
19 | CCCCCCCCCCCCCC(=O)NCC(=O)c1cccc(C)c1 | Active | Active | – | – | –
20 | CCCCCCCCCCCCCC(=O)NCC(O)c1ccc(C)cc1 (racemic) | Active | Active | – | inactive | –
21 | CCCCCCCCCCCCS(=O)(=O)NCC(O)c1ccncc1 (racemic) | Active | Active | – | – | –
22 | CCCCCCCCCCCCCC(=O)N[C@H](CO)[C@H](O)c1ccc([N+](=O)[O-])cc1 | – | Active | – | – | 10 µM
23 | CCCCCCCCCCCCCC(=O)NCC(O)c1ccc(C(C)(C)C)cc1 (racemic) | inactive | Active | – | – | –
24 | CCCCCCCCCCCCCC(=O)NCC(O)c1cccc(O)c1 (racemic) | – | Active | – | – | –
25 | CCCCCCCCCCCCS(=O)(=O)NCC(O)c1ccccc1 (racemic) | Active | Active | – | – | –
